Assay results published in US8445539B2, “Alpha-aminoamide derivatives useful in the treatment of psychiatric disorders” (priority 2007, dated 2013).

Experiments:
[1] = test system: MK-801 induced hyperlocomotion; test: MK-801 induced hyperlocomotion in mice; format: in vivo; settings: MK-801 induced locomotion in mice
Protocol: Glutamate N-methyl-D-aspartate (NMDA) receptor antagonists, like phencyclidine (PCP) or MK-801, elicit schizophrenia-like symptoms in humans and behavioural abnormalities in animals, such as hyperactivity. Atypical antipsychotics decrease hyperlocomotion produced in mice by MK-801 or PCP and this represents a commonly used animal models predictive of efficacy against the symptoms of schizophrenia. Vehicle or compound was injected 30-35 min before the animal entered the activity chambers. Hyperlocomotion was produced in mice by administration of MK-801 (0.3 mg/kg) 15 min before the animal entered the activity chambers (i.e., […] min after vehicle or compound administration) and the total distance traveled in centimeters was determined during a 15-30 min session. The increase in MK-801-induced total distance traveled were attenuated by active compounds.

MAO-B = MAO-B (Rattus norvegicus, UniProt P19643); test: biochemical
Sequence of MAO-B (P19643 whole entry): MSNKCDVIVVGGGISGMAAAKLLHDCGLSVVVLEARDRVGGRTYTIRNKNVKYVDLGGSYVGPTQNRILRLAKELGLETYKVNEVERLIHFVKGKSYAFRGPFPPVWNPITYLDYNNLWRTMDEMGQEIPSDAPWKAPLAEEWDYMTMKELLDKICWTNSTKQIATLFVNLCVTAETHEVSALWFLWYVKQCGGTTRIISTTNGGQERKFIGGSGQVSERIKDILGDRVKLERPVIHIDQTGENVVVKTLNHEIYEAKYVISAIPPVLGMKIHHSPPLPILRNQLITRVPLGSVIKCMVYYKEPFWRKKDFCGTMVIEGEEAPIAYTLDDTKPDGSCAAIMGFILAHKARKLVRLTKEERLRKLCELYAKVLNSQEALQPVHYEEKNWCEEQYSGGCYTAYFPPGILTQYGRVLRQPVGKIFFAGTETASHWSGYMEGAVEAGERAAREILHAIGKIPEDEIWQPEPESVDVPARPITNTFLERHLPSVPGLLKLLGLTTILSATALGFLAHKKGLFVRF
Protocol: The crude homogenate was centrifuged at 2220 rpm for 10 minutes at +4° C. and the supernatant recovered. The pellet was homogenized and centrifuged again. The two supernatants were pooled and centrifuged at 9250 rpm for 10 minutes. The pellet was resuspended in fresh buffer and centrifuged at 11250 rpm for 10 minutes at +4° C. The resulting pellet was stored at −80° C.
The mitochondrial pellet (500 μg protein) was resuspended in 0.1 M phosphate buffer (pH 7.4). 500 μl of the suspension were added to a 50 μl solution of the test compound or buffer, and incubated for 30 min at 37° C. (preincubation) then the substrate (50 μl) was added. […] (^14C-PEA, 0.5 μM).
The amount of neutral and/or acidic metabolites formed as a result of MAO activity was obtained by measuring the radioactivity of the eluate.
The activity of MAO in the sample, corresponding to a percentage of radioactivity compared with the control activity in the absence of the inhibitor, was expressed as nmoles of substrate transformed/mg protein/min.

[2] = test system: anxiety-like behaviour in Open Field; test: Anxiety open field test; format: in vivo; settings: open field test in rats
Excerpt: The Open Field test is commonly used to assess locomotor, exploratory and anxiety-like behaviour in rats or mice. This test is particularly useful in evaluating the effects of anxiolytic and anxiogenic drugs, locomotor responses to drug and as well as behavioural responses to novelty.
The Open Field test task approaches the conflict between the innate fear that rats have of the central area of a novel or brightly lit open field versus their desire to explore new environments. When anxious, the natural tendency of rodents is to prefer staying closed to the walls (thigmotaxis). In this context, anxiety-related behaviour is measured by the degree to which the rat avoids the center of the Open Field test.
The Open Field arena consists of an empty and bright square arena surrounded by walls to prevent animal from escaping. The arena (90 cm×90 cm×40 cm height) was divided into 6×6 grid of equally-sized squares using black tape. […]
The rat is placed in the center of the arena and its behaviour recorded on video over a chosen period (from 5 to 15 min) and scored.
Time spent in each category of square is recorded. In addition, the fifteen minute open-field test is divided into 3 blocks of 5 minutes and total locomotor activity is scored as the number of square entries in each five minute block. […] Finally, the latency to visit the large centre and any one of the four corners is scored manually. […]

Dopamine D4.7 = test: Dopamine receptor radioligand binding assay; settings: inhibition of specific binding
Protocol: (§1) The assays were performed, under standard conditions, as described in the following publications: Dearry A et al., Nature; 1990; 347: 72-76; Bunzow J R et al., Nature; 1988; 336: 783-787; Sokoloff P. et al., Nature; 1990; 347: 146-151; Van Tol H H M et al., Nature; 1991; 350: 610-614; Van Tol H H M et al., Nature; 1992; 358: 149-152; Sibley D R et al., Trend Pharmacol. Sci.; 1992; 13:61-69.
(§2) Biochemical assay results are presented as the percent inhibition of specific bindings at a single compound concentration. Responses are considered significant for binding activities >50%.

Dopamine D5 = Dopamine D5 (Homo sapiens, UniProt P21918); test: Dopamine receptor radioligand binding assay; settings: inhibition of specific binding
Sequence of Dopamine D5 (P21918 whole entry): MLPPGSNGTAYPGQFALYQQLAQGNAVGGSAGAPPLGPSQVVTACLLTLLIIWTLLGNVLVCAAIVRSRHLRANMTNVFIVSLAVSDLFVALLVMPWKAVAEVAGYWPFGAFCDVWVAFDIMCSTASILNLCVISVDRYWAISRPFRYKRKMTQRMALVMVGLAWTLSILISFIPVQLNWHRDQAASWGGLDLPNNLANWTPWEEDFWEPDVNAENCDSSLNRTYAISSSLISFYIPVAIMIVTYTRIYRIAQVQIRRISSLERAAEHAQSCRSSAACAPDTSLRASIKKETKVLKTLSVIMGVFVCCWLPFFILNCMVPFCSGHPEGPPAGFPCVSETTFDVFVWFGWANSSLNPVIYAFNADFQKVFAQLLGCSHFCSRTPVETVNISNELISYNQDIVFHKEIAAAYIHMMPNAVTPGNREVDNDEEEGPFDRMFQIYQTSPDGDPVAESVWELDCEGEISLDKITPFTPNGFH
Protocol: as §1, §2

Dopamine D4.4 = target: T1, Dopamine D4.4 (Homo sapiens, UniProt P21917); test: Dopamine receptor radioligand binding assay; settings: inhibition of specific binding
T1 sequence (P21917 1-419): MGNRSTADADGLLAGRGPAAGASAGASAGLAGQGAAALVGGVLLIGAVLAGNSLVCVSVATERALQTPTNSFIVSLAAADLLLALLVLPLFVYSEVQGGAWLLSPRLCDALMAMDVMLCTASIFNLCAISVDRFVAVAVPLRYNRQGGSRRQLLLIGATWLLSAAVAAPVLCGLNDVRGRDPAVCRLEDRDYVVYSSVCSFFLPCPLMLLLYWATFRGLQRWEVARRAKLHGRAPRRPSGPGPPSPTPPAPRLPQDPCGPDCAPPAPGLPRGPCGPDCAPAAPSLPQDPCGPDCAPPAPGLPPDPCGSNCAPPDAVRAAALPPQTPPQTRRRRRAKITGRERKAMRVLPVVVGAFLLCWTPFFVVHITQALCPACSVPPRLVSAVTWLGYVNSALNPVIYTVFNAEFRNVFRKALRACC
Protocol: as §1, §2

Dopamine D2L = Dopamine D2L (Homo sapiens, UniProt P14416); test: Dopamine receptor radioligand binding assay; settings: inhibition of specific binding
Sequence of Dopamine D2L (P14416 whole entry): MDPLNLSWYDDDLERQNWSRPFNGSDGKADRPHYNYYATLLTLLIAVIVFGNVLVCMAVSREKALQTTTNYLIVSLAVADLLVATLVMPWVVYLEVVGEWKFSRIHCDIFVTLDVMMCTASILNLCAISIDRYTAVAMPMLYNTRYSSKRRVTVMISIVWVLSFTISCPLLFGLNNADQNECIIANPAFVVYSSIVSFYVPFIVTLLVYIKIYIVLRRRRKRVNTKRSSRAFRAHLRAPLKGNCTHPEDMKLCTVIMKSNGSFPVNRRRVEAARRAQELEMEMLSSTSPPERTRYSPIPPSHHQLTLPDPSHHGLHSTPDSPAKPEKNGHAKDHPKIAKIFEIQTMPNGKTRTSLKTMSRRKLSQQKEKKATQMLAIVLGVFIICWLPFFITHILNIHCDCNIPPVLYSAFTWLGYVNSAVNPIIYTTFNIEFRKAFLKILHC
Protocol: as §1, §2

Dopamine D1 = Dopamine D1 (Homo sapiens, UniProt P21728); test: Dopamine receptor radioligand binding assay; settings: inhibition of specific binding
Sequence of Dopamine D1 (P21728 whole entry): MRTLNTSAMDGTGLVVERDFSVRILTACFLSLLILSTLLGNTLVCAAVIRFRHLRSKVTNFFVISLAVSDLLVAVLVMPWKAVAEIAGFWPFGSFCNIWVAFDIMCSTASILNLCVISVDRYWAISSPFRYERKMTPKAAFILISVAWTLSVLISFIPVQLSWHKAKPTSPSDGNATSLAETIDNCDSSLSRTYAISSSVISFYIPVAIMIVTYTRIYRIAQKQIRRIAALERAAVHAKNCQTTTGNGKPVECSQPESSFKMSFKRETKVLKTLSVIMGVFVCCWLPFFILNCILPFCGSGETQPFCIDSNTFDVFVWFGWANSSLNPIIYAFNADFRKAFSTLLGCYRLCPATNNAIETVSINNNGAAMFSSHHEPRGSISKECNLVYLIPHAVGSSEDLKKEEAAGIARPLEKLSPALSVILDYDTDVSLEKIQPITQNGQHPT
Protocol: as §1, §2

Dopamine D2S = Dopamine D2S (Homo sapiens, UniProt P14416); test: Dopamine receptor radioligand binding assay; settings: inhibition of specific binding
Sequence of Dopamine D2S (P14416 1-414 isoform P14416-2): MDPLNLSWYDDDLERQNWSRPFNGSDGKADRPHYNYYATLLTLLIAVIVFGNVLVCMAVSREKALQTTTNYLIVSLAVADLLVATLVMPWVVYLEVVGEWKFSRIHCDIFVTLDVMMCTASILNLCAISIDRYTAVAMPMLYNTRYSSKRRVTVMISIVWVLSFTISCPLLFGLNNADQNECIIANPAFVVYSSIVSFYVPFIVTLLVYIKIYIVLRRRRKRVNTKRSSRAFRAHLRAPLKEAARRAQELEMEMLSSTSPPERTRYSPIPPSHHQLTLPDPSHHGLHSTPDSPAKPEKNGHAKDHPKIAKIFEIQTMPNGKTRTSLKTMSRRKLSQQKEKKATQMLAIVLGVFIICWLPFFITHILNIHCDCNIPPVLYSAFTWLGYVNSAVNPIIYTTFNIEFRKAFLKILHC
Protocol: as §1, §2

Dopamine D3 = Dopamine D3 (Homo sapiens, UniProt P35462); test: Dopamine receptor radioligand binding assay; settings: inhibition of specific binding
Sequence of Dopamine D3 (P35462 whole entry): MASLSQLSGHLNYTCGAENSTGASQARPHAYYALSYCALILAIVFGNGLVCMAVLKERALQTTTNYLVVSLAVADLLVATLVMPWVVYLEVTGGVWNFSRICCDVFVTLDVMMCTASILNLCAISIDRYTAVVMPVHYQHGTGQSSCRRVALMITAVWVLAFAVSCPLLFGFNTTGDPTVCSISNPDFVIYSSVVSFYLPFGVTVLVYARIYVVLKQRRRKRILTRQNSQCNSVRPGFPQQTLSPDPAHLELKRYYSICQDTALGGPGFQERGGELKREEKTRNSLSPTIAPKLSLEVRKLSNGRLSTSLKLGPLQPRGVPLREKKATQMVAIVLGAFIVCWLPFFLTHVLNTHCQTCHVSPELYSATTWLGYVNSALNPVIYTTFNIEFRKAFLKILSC
Protocol: as §1, §2

Dopamine D4.2 = test: Dopamine receptor radioligand binding assay; settings: inhibition of specific binding
Protocol: as §1, §2

C[C@H](NCc1ccc(OCc2ccccc2F)cc1)C(N)=O [Ralfinamide methanesulfonate, (S)-(+)-2-[4-(2-fluorobenzyloxy)benzylamino]propanamide]
Activity in schizophrenia animal model (Example 5) [1]: active | IC50 (MAO-B): 132 nM | Activity in anxiety animal model (Example 6) [2]: active | % Inhibition at 10 μm (Dopamine D4.7): no inhibition | % Inhibition at 10 μm (Dopamine D5): no inhibition | % Inhibition at 10 μm (Dopamine D4.4): no inhibition | % Inhibition at 10 μm (Dopamine D2L): no inhibition | % Inhibition at 10 μm (Dopamine D1): no inhibition | % Inhibition at 10 μm (Dopamine D2S): no inhibition | % Inhibition at 10 μm (Dopamine D3): 7% | % Inhibition at 10 μm (Dopamine D4.2): 1%
